In one experiment the test system is Oct4. As to the kind of experiment: Oct4 gene expression (Taqman, normalized to GAPDH) in neonatal human dermal fibroblasts. The class given is cell-based. The settings on record: for increase in Oct4 compared to cells that receive no agent treatment / increase in relative expression of Oct4 compared to cells treated with DMSO: after 6 days, hFib media. As for the experimental part:
(§1) Neonatal human dermal fibroblasts (fibroblast cell line NHDF-3955-Neo from Lonza) are cultured under standard cell culture conditions using hFib media (DMEM, 20% Earl's 199 media, 10% FBS, Glutamax, beta-mercaptoethanol (bME)). Approximately 12,000 cells per well are plated on a 12-well plate. 24 hrs after plating, cells are daily fed with media containing 4, 10, 20, 50 or 100 μM GPI-1046 (ACC Corporation) or 1% DMSO. After 6 days, cells are collected and RNA is extracted using a Qiagen RNeasy kit. Gene expression is analyzed using specific Taqman primer-probe sets for Sox2, Oct4, and GAPDH on an ABI 7900HT. Gene expression of cells previously infected with retroviruses encoding Sox2, Oct4, Klf4, and c-Myc (“KSOM”) is also analyzed and is used for positive control purposes. The expression of Sox2 and Oct4 is normalized to the expression of housekeeping gene GAPDH. […] As also indicated in FIG. 1, cells that are treated with 50 μM or 100 μM GPI-1046 express about 5.2-fold and 5.7-fold, respectively, increases in Oct4 when compared to cells that receive no agent treatment and approximately a 3.5- and 3.8-fold increase, respectively, in relative expression of Oct4 when compared to cells that are treated with DMSO.
(§2) Neonatal human dermal fibroblasts (fibroblast cell line NHDF-3955-Neo from Lonza) are cultured under standard cell culture conditions using hFib media (DMEM, 20% Earl's 199 media, 10% FBS, Glutamax, beta-mercaptoethanol (bME)). Approximately 6,000 cells per well are plated on a 24-well plate. 48 hrs after plating, cells are daily fed with media containing 1 or 100 μM GPI-1046 with or without 0.5 μM Decitabine. On day 7 of treatment, cells are collected and RNA is extracted using a Qiagen RNeasy kit. Gene expression is analyzed using specific Taqman primer-probe sets for Sox2, Oct4 and GAPDH on an ABI 7900HT. The expression of Sox2 and Oct4 is normalized to the expression of housekeeping gene GAPDH.
Neonatal human dermal fibroblasts (fibroblast cell line NHDF-3955-Neo from Lonza) are cultured under standard cell culture conditions using hES medium, as described herein. Cells are treated with 0 μM, 2 μM, 10 μM, 50 μM, or 100 μM GPI-1046. On day 5 or day 8 after treatment, cells are collected and RNA is extracted using a Qiagen RNeasy kit. Gene expression is analyzed using specific Taqman primer-probe sets for Sox2, Oct4 and GAPDH on an ABI 7900HT. Gene expression of cells previously infected with retroviruses encoding Sox2, Oct4, Klf4, and c-Myc (“KSOM”) is also analyzed and is used for positive control purposes. The expression of Sox2 and Oct4 is normalized to the expression of housekeeping gene GAPDH. […] The morphology of cells infected with viruses encoding KSOM is depicted in FIG. 8.
For orientation: Quantitative PCR measures a nucleic acid by following its amplification.

The next experiment relates to Sox2. As to the kind of experiment: Sox2 gene expression (Taqman, normalized to GAPDH) in neonatal human dermal fibroblasts. The class given is cell-based. The settings on record: for increase in Sox2 expression compared to cells that receive no drug treatment: daily feeding. As for the experimental part:
as §1
Neonatal human dermal fibroblasts (fibroblast cell line NHDF-3955-Neo from Lonza) are cultured under standard cell culture conditions using hFib media (DMEM, 20% Earl's 199 media, 10% FBS, Glutamax, beta-mercaptoethanol (bME)). Approximately 12,000 cells per well are plated on a 12-well plate. 24 hrs after plating, cells are daily fed with media containing 2, 5, 25 or 50 μM 616 453 (Calbiochem) or 1% DMSO. After 6 days, cells are collected and RNA is extracted using a Qiagen RNeasy kit. Gene expression is analyzed using specific Taqman primer-probe sets for Sox2 and GAPDH on an ABI 7900HT. Gene expression of cells previously infected with retroviruses encoding Sox2, Oct4, Klf4, and c-Myc (“KSOM”) is also analyzed and is used for positive control purposes. The expression of Sox2 is normalized to the expression of housekeeping gene GAPDH.
as §2
as §2, with “LY 364947 (Tocris); for 50 μM 616 453 (Calbiochem); 1” for “GPI-1046 with”, “100 μM of A-83-01 (Tocris) or 1 or 100 μM SB 431542 (Tocris). Each treatment was performed in the presence or absence of” for “without”, “using” for “using a”, “Sox2” for “Sox2, Oct4”, “Sox2” for “Sox2 and Oct4”, “GAPDH. […] The morphology of the cells after treatment is depicted in FIG. 5.” for “GAPDH.”
Neonatal human dermal fibroblasts (fibroblast cell line NHDF-3955-Neo from Lonza) are cultured under standard cell culture conditions using hES medium, as described herein. Cells are treated with 0 μM, 2 μM, 10 μM, 50 μM, or 100 μM GPI-1046. […]

The next experiment relates to human BJ-5Tα fibroblasts. To be noted: Day 8. Here is the method: In the case of compound 616452, cells KSO and KSOM-infected BJ-5Tα fibroblasts were fixed by 4% paraformaldehyde at Day 8, and then incubated with 50 μl 1-Step NBT/BCIP for 20 minutes for AP staining AP staining-positive colonies were counted (see FIGS. 15-16).
The next experiment relates to human BJ fibroblasts. To be noted: BJ fibroblasts (lack TERT), Day 8, reduced sensitivity compared to BJ-5Tα.
The next experiment concerns p21. As to the kind of experiment: p21 gene expression (Taqman, normalized to GAPDH) in neonatal human dermal fibroblasts. The class given is cell-based. The settings on record: after 6 days. As for the experimental part: (§3) Neonatal human dermal fibroblasts (fibroblast cell line NHDF-3955-Neo from Lonza) are cultured under standard cell culture conditions using hFib media (DMEM, 20% Earl's 199 media, 10% FBS, Glutamax, beta-mercaptoethanol (bME)). Approximately 12,000 cells per well are plated on a 12-well plate. 24 hrs after plating, cells are daily fed with media containing 4, 10 or 20 μM DIM (Sigma) or 1% DMSO. After 6 days, cells are collected and RNA is extracted using a Qiagen RNeasy kit. Gene expression is analyzed using specific Taqman primer-probe sets for Klf4, p21 and GAPDH on an ABI 7900HT. Gene expression of cells previously infected with retroviruses encoding Sox2, Oct4, Klf4, and c-Myc (“KSOM”) is also analyzed and is used for positive control purposes. The expression of Klf4 and p21 is normalized to the expression of housekeeping gene GAPDH.

A further experiment deals with Klf4. Description: Klf4 gene expression (Taqman, normalized to GAPDH) in neonatal human dermal fibroblasts. To be noted: after 6 days. The class given is cell-based. As for the experimental part: as §3
In another experiment the test system is mouse fibroblasts. The settings on record: cited from earlier work.
Setting [1] is: 100 μM with 0.5 μM Decitabine, day 7 of treatment.
[2] abbreviates: 100 μM, no Decitabine, day 7 of treatment.

Where two headings read alike, the source gives them in different places.

From the text for human BJ fibroblasts: In order to determine the effect of TGFβR inhibitor compounds on reprogramming we combined low multiplicity of infection (MOI) of retroviruses for three induction factor (Klf4, Sox2, and Oct ¾ or “KSO”) and four induction factor (Klf4, Sox2, Oct3/4, c-Myc or “KSOM”) reprogramming with various TGFβR inhibitors in human BJ-5Tα fibroblasts or BJ fibroblasts. […] By utilizing a low MOI infection protocol, we increased the sensitivity of the assay to detect the ability of various TGFβR inhibitor compounds to enhance the efficiency of reprogramming by three or four induction factor combinations.
Adherent BJ or BJ-5Tα (TERT-immortalized) fibroblast cells were infected “in bulk” with retroviruses for expression of the three induction factors (also referred to as “reprogramming factors”) KLF4, OCT3/4 and SOX2 (“KSO”), or the cells were infected with retroviruses for expression of KLF4, OCT4, SOX2 and c-MYC (“KSOM”), in each case at a multiplicity of infection (MOI) of 1, and transferred into 96-well plates in a serum-free human embryonic stem cell (hES) medium. […] AP activity was determined quantitatively using a chemiluminescent 1,2-dioxetane-phosphate substrate, which upon dephosphorylation by AP forms a metastable phenolate anion intermediate that decomposes emitting light quantified by a microplate luminometer.

In the case of `CCC(C)(C)C(=O)C(=O)N1CCCC1C(=O)OCCCc1cccnc1` (centres unmarked) [GPI-1046], the “increase in Oct4 compared to cells that receive no agent treatment” value in the experiment with Oct4 (50 μM) is “about 5.2 fold”; in the experiment on Oct4 (100 μM) it was roughly 5.7 fold. Moreover, the entries for the “increase in relative expression of Oct4 compared to cells treated with DMSO” value in the experiment on Oct4 (50 μM) and in the experiment on Oct4 (100 μM) were roughly 3.5 fold and roughly 3.8 fold, respectively. Besides, the “Oct4 expression compared to control cells” value in the experiment on Oct4 (setting [1]) is “slightly increased expression”. Moreover, the “relative Oct4 expression compared to cells that do not receive drug treatment” value with Oct4 (100 μM, Day 8, hES medium) is “increases in relative Sox2 and Oct4 expression”. Besides, the “increase in Oct4 expression compared to control cells” value with Oct4 (setting [2]) is reported as roughly 4.3 fold. The “levels of Sox2, Oct3/4 or both versus cells treated with no agent” value with Sox2 (4 μM, 10 μM, or 20 μM, after 6 days, hFib media) is listed as “higher levels of Sox2, Oct3/4 or both”. Moreover, in the experiment with Sox2 (50 μM or 100 μM, after 6 days, hFib media), the “increase of relative Sox2 expression compared to cells treated with DMSO” value is reported as roughly 1.6 fold. The “increase in Sox2 expression compared to cells that receive no drug treatment” value in the experiment on Sox2 (50 μM, after 6 days, hFib media) was 4.4 fold; with Sox2 (100 μM, after 6 days, hFib media), 4.5 fold. Further, the “Sox2 expression compared to control cells” value with Sox2 (setting [1]) is “slightly increased expression”. In the experiment with Sox2 (100 μM, Day 5, hES medium), the “relative Sox2 expression compared to control cells” value is “an increase in relative Sox2 expression”. Besides, the “relative Sox2 expression compared to cells that do not receive drug treatment” value with Sox2 (100 μM, Day 8, hES medium) was “increases in relative Sox2 and Oct4 expression”. Moreover, the “increase in Sox2 expression compared to control cells” value in the experiment on Sox2 (setting [2]) is given as roughly 3.5 fold.
For the molecule `Cc1cccc(-c2nc(C(C)(C)C)[nH]c2-c2ccc3c(c2)OCO3)n1` [616 453], the “relative Sox2 expression” value in the experiment with Sox2 (1 μM, day 7 of treatment) is recorded as “an increase in relative Sox2 expression”; with Sox2 (50 μM plus 0.5 μM Decitabine, day 7 of treatment) it was “an increase in relative Sox2 expression”. Moreover, the “Sox2 expression compared to cells that receive no treatment” value with Sox2 (2, 5, 25 or 50 μM, after 6 days) is given as “an increase in Sox2 expression”. Further, the “relative Sox2 expression compared to cells treated with DMSO” value in the experiment on Sox2 (2, 5 and 50 μM, after 6 days) is “an increase in relative Sox2 expression”.
As for `Cc1cccc(-c2nn(C(=S)Nc3ccccc3)cc2-c2ccnc3ccccc23)n1` [A-83-01], the “relative expression of Sox2 compared to control cells” value with Sox2 (1 or 100 μM, absence of Decitabine, day 7 of treatment) is recorded as “increased relative expression of Sox2”. Also, in the experiment with Sox2 (1 or 100 μM, presence of 0.5 μM Decitabine, day 7 of treatment), the “relative Sox2 expression compared to control cells” value is on record as “a slight increase of relative Sox2 expression”.
Turning to `NC(=O)c1ccc(-c2nc(-c3ccc4c(c3)OCO4)c(-c3ccccn3)[nH]2)cc1` [SB 431542], the “relative Sox2 expression” value in the experiment with Sox2 (100 μM plus 0.5 μM Decitabine, day 7 of treatment) is recorded as “an increase in relative Sox2 expression”.
Regarding `Cc1cccc(-c2n[nH]cc2-c2ccc3ncccc3n2)n1` [compound 616452], the “increase in number of AP positive colonies” value is recorded as “greater than ten fold” in the experiment with human BJ-5Tα fibroblasts (KSO-infected BJ-5Tα fibroblasts) and “approximately five fold” in the experiment with human BJ-5Tα fibroblasts (KSOM-infected BJ-5Tα fibroblasts). In addition, the alkaline phosphatase activity result in the experiment with human BJ fibroblasts (four factor (KSOM) reprogramming) and in the experiment on human BJ fibroblasts (three factor (KSO) reprogramming) was “increased alkaline phosphatase activity” each time.
For the molecule `c1ccc2c(Cc3c[nH]c4ccccc34)c[nH]c2c1` [DIM], the “increase in p21 expression relative to cells treated with no agent” value in the experiment with p21 (4 μM) is on record as “approximately 2 fold”. Also, in the experiment with p21 (10 μM), the “increase in p21 expression compared to cells treated with no agent” value is “approximately 2 fold”. In addition, the “increase in Klf4 expression relative to cells treated with no agent” value with Klf4 (4 μM) is “approximately 2 fold”. Moreover, the “increase in Klf4 expression compared to cells treated with no agent” value with Klf4 (10 μM) is roughly 3.2 fold.

B1: Wnt3a: Wnt cell signaling molecule (protein, UniProt P56704 19-352, looked up)
Protein Wnt-3a: SYPIWWSLAVGPQYSSLGSQPILCASIPGLVPKQLRFCRNYVEIMPSVAEGIKIGIQECQHQFRGRRWNCTTVHDSLAIFGPVLDKATRESAFVHAIASAGVAFAVTRSCAEGTAAICGCSSRHQGSPGKGWKWGGCSEDIEFGGMVSREFADARENRPDARSAMNRHNNEAGRQAIASHMHLKCKCHGLSGSCEVKTCWWSQPDFRAIGDFLKDKYDSASEMVVEKHRESRGWVETLRPRYTYFKVPTERDLVYYEASPNFCEPNPETGSFGTRDRTCNVSSHGIDGCDLLCCGRGHNARAERRREKCRCVFHWCCYVSCQECTRVYDVHTCK
For the molecule B1, the “enhancement of reprogramming efficiency” value with mouse fibroblasts (mouse fibroblasts in the presence of factors Oct4, Sox2 and Klf4) is listed as “about 20 fold”; with mouse fibroblasts (mouse fibroblasts with Oct4, Sox2, Klf4 and c-Myc) it was 1.2 fold.

The values above are taken from US20120122212A1, “TGF-BETA PATHWAY INHIBITORS FOR ENHANCEMENT OF CELLULAR REPROGRAMMING OF HUMAN CELLS” (priority 2009, published 2012).
